Experimental data from patent US8097241B2, “Formulation and method for treating animal waste” (priority 2007, dated 2012).

Key:
[1] = Rate of malodor disappearance from dog waste stirred at 40° C.; conditions: oxidizing agent added to the formulation or as aqueous solution
Experimental: 1. The specific amount of feces was weighed (about 4.0 g; accuracy of 1 mg) out and transferred to the 200 mL beaker.
2. 100.0 g of aqueous solution containing either no additives or the selected ones weighed at the same balance (accuracy of 1 mg) was added to the beaker.
3. The sample was located on a hot plate and stirred magnetically at 40° C. in the fume hood.
4. The samples were checked for the released smell every few minutes.
50.0 mL of deionized water containing selected quantities of detergent, pH affecting agent and protease (same concentration as in the formulation divided by 50 since this is the planned dilution with water), pH affecting agent and protease • a. no additives • b. Cola Lipid (0.20 g); protease (Alcalase 3.0T, 0.008 g), sodium perborate tetrahydrate (0.012 g), citric acid (to adjust pH to about 3.0), • c. Cola Lipid (0.20 g); protease (Alcalase 3.0T, 0.008 g), sodium perborate tetrahydrate (0.012 g), sodium hydrogen carbonate (to adjust pH to about 10.0), • d. Cola Lipid (0.20 g); protease (Alcalase 3.0T, 0.008 g), 5% hydrogen peroxide (0.100 g), citric acid (to adjust pH to about 3.0) was added to 3.00 g of the dog waste. The mixtures were located in the fume hood, heated on the hot plate to 40° C. and stirred magnetically. […] The malodor of the sample “a” disappeared after about 30 minutes.

[2] = Rate of disintegration of animal waste: time to a uniformly distributed suspension under magnetic stirring; design: species or system dog; conditions: about 5 g waste, 90.0 g water, stirring about 90 rpm; water alone 16 minutes
Experimental: 1. The selected amount of feces was weighed out with the accuracy of 10 mg. All the samples had the same mass within 200 milligrams.
2. […]
3. The mixture was mixed at specific rate (about 90 rpm) using a magnetic bar inside the solution and a magnetic stirrer. The amount of time necessary to produce a uniformly distributed suspension was measured.

animal waste bio-burden = experiment: Lowering of animal waste bio-burden: dog waste homogenised with additives, serially diluted, plated on agar, CFUs counted; assay type: cell-based
Experimental: 1. A specific amount of a dog waste weighed with the accuracy of 1 mg (usually between 3 and 7 g) was transferred into the sterilized homogenizer. In a set of experiments performed on a given day the mass of all the samples were the same within 20.0 mg.
2. All the required additives were weighed out using the same balance and introduced into a specific amount of deionized, freshly boiled (but cooled to room temperature) water (usually between 50.0 g and 100.0 g) in the sterilized Erlenmeyer flask.
3. Next, the aqueous solution of additives was transformed into the homogenizer.
4. The mixture was mixed at low (18,000 RPM) for a specific amount of time (usually 30 seconds).
5. The resulting suspension was transferred to the sterilized Erlenmeyer flask and gradually diluted 10 times in several subsequent dilution steps. Initially, 5.0 mL of the non-diluted solution was added to 45.0 mL of deionized, freshly boiled water. The Eppendorf pipettes were used for further dilutions and in each case […] of the previous sample after vortex was added to 0.900 mL of deionized, freshly boiled water in a sterile vial. Usually, 6 or 7 dilutions were performed. In every set of experiments one sample consisted of the feces and water only. All the results were measured against this sample.
6. […]
8. Next, each sample was counted to determine the number of CFUs (colony forming units).

Compound | reduction of malodor of feces, in words [1] | Time until feces disintegration [2] [min] | further results
O.O.O.O=BO[O-].[Na+] [sodium perborate trihydrate] | significantly reduced malodours | – | –
CCCCCCCCCCCCOS(=O)(=O)[O-].[Na+] [Sodium dodecyl sulfate, sodium dodecyl sulfate] | – | 1 | –
O=C(OO)c1cccc(Cl)c1 [metachloroperbenzoic acid (MCPBA), metachloroperbenzoic acid] | destroy the malodor very effectively | – | –
sodium perborate | destroy the malodor very effectively | – | reduction of malodor of feces, in words ([1]; listed as Sodium perborate): effectively minimizes the malodor of feces
octoxynol [Triton X100] | – | 4 | –
CCCCCCCC/C=C\CCCCCCCC(=O)OCCOCC(OCCO)C1OCC(OCCO)C1OCCO (stereo not shown) [Tween 80, polysorbate 80] | – | 2 | –
cocamidopropyl PG-dimonium chloride phosphate [Cola lipid] | – | 1 | effect of added citric acid on antimicrobial activity (animal waste bio-burden; formulation of Table 3 against the same formulation without citric acid): significantly enhanced the antimicrobial activity; antimicrobial activity, comparison in words (animal waste bio-burden; treating animal waste): significantly better antimicrobial activity
